This note sets out measurements from publication PMC6037046, “Structural insights into Plasmodium falciparum nicotinamide mononucleotide adenylyltransferase: oligomeric assembly” (Memórias do Instituto Oswaldo Cruz, 2018).

Assay [1] concerns the target 6 x His-Plasmodium falciparum nicotinamide mononucleotide adenylyltransferase (PfNMNAT) recombinant protein (Plasmodium falciparum (FCB2 strain gDNA; ORF identified in strain 3D7)) (UniProt Q8IE38). As to the kind of experiment: native gel or EMSA; native PAGE of IMAC eluate (four gels of 6, 8, 10, 12 %T) with Ferguson plot (-Log Kr vs Log MW) against standard proteins.

The target in assay [2] is T1, 6 x His-PfNMNAT (Plasmodium falciparum, UniProt Q8IE38).
T1 construct: gene PF3D7_1327600; full ORF in pET100/D-TOPO, N-terminal 6xHis tag kept, E. coli Codon Plus (DE3) RIL, ~28 kDa
T1 sequence (Q8IE38 1-204): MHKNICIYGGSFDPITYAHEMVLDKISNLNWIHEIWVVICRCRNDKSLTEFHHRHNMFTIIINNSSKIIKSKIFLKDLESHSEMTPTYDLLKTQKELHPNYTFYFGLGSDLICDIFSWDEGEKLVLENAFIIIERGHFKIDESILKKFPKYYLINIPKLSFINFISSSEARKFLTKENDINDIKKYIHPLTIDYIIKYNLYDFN
As to the kind of experiment: RP-HPLC of NAD formed (direct assay); also ADH-coupled assay at […] nm. In kind it is biochemical. The settings on record: 1.25 mM NMN, 1.25 mM ATP, 10 mM MgCl2, 25 mM HEPES/KOH pH 7.4, 37 C.

Consider “6 x His-Plasmodium falciparum nicotinamide mononucleotide adenylyltransferase (PfNMNAT) recombinant protein (from UniProt Q8IE38 1-204) (enzyme)”, for which the stoichiometry N in assay [1] came out at 2. Consider `Nc1ncnc2c1ncn2[C@@H]1O[C@H](COP(=O)(O)OP(=O)(O)OP(=O)(O)O)[C@@H](O)[C@H]1O` [ATP], for which the “RP-HPLC of NAD formed (direct assay); also ADH-coupled assay at 340 nm” value in assay [2] was “direct enzymatic assays that measured NAD synthesis from NMN and ATP”. Still for that read-out and setting: as for `NC(=O)c1ccc[n+]([C@@H]2O[C@H](COP(=O)(O)O)[C@@H](O)[C@H]2O)c1` [NMN, nicotinamide mononucleotide], the entry is “direct enzymatic assays that measured NAD synthesis from NMN and ATP”.

The term stoichiometry N denotes a count of units in the complex or per binding partner.
